# Entries after “also recorded” stand apart in the source; their conditions may differ.
# Key:
# human RNAseH1 = molecular target: T1, human RNAseH1 (Homo sapiens, UniProt O60930); experiment: Oligonucleotide-directed RNAseH assay, recombinant human RNAseH1; format: biochemical; details: for Inhibition of human RNAseH1: 10 μM, compared directly with HRHPL; for Activity vs. human RNAseH1: class by concentration giving inhibition (10, 20, 60 μM)
# T1 construct: hexahistidine (N); made in house; host or cells: E. coli BL21 codon+
# T1 sequence (O60930 1-286): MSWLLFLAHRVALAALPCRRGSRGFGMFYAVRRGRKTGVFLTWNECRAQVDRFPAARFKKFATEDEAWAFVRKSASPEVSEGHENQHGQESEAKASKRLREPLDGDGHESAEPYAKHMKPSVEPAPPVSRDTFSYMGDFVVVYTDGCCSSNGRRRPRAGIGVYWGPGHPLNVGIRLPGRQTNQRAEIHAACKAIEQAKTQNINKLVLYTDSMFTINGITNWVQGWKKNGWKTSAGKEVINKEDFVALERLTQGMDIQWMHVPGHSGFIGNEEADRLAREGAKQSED
# Method in brief: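 His-tagged human RNAseH1, expressed in E. coli and titrated to an activity matching the HBV enzyme, was incubated with internally 32P-labelled RNA plus a complementary DNA oligonucleotide. Reactions ran for 90 min at 42 °C in 65 mM Tris pH 8.0, 190 mM NaCl and 5 mM MgCl2, with 1% DMSO. Cleavage was measured by SDS-PAGE autoradiography.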
# HBV = HBV genomic replication assays (Table 2); format: cell-based, Hepatitis B virus; details: class by active concentration
# Method in brief: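 Huh7 cells transfected with HBV plasmid received compound at 10 or 50 μM, refreshed every 1-2 days. Core-particle DNA isolated 4-5 days post-transfection was analysed by Southern blot, with or without RNaseH. For the screen, replicating cells got 60, 20 or 6.7 μM, refreshed days 1-2, and plus-strand DNA was quantified on day 3 by cross-gap TaqMan PCR.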
# [1] = molecular target: T2, chimeric HBV:HIV RNAseH HHC1 (Hepatitis B virus genotype D subtype ayw, UniProt P03156, DELINS787-795[…]/INS679M); experiment: Oligonucleotide-directed RNAseH cleavage assay, chimeric HHC1; format: biochemical; details: 10 μM; ± standard deviation, 3 to 7 replicates
# T2 construct: HHC1 is an HRHPL derivative; made in house; host or cells: E. coli BL21 codon+
# Method in brief: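 Bacterially expressed C-terminal His-tagged HHC1 (HRHPL, HBV genotype D pol 684-845, with residues 800-808 swapped for HIV RNAseH helix D) extract mixed with internally 32P-labeled DRF+ RNA and oligonucleotide D2507- (D2526+ negative control), 42 °C, 90 min. Products resolved by 12% SDS-PAGE, autoradiographed and quantified; compounds added in DMSO, DMSO vehicle control.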
# T2 sequence (P03156 680-786, added parts left off, stated change not applied): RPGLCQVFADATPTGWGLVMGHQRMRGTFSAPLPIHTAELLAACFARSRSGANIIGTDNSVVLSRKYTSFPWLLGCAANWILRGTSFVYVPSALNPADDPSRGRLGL
Structure (SMILES),Inhibition of human RNAseH1 (human RNAseH1),Activity vs. human RNAseH1 (human RNAseH1),Activity vs. HBV Genomic Replication (HBV),"Residual activity at 10 uM, HHC1 [1] [Percent DMSO control]","Effect on human RNAseH1 (human RNAseH1; 0, 5, or 20 μM)","Effect on human RNAseH1 activity (human RNAseH1; 0.02 to 100 μM, listed as βTJ)"
"Cc1nnc(C(=O)NC(C)(C)c2nc(C(=O)NCc3ccc(F)cc3)c(O)c(=O)n2C)o1 [Compound 11, Raltegravir, reference compound]",had no effect on RNAseH1,− (− no inhibition at 60 μM),− (− no activity at 60 μM),–,–,–
"NCc1ccc(-c2ccc(Cc3cc(=O)n(O)c4ncccc34)cc2)cc1 [Compound 12, napthyridinone]",inhibited it weakly,–,"++ (++, clear activity at <10 μM)",32 ± 8,–,–
[N-]=[N+]=NCc1cccc(C(=O)CC(=O)C(=O)O)c1 [Compound 40],–,–,− (− no activity at 60 μM),44 ± 10,–,–
"CC(C)c1ccc(O)c(=O)c(O)c1 [Compound 46, beta-thujaplicinol]",–,− (− no inhibition at 60 μM),"++ (++, clear activity at <10 μM)",–,had little effect on the human RNAseH1,had no effect on RNAseH1 activity; also recorded: failed to inhibit recombinant human RNAseH1
Cc1cc(=O)oc2cc(O)c(O)cc12 [Compound 34],–,+ (+ inhibition at 60 μM),− (− no activity at 60 μM),39 ± 4,–,–
Cc1c2cc(O)c(=O)cc-2oc2cc(O)c(O)cc12 [Compound 8],inhibited RNAseH1 well,+++ (+++ inhibition at 10 μM),− (− no activity at 60 μM),55 ± 18,–,–
"COc1cc2c(cc1Cc1cccc(Cl)c1F)c(=O)c(C(=O)O)cn2[C@H](CO)C(C)C [Compound 10, Elvitegravir, reference compound]",had no effect on RNAseH1,− (− no inhibition at 60 μM),− (− no activity at 60 μM),–,–,–
CCOc1ccc(-c2c3cc(O)c(=O)cc-3oc3cc(O)c(O)cc23)cc1 [Compound 30],–,+++ (+++ inhibition at 10 μM),"+ (+, activity detectable at >10 μM)",58 ± 12,–,–
COc1ccc2ccccc2c1C=NNC(=O)c1cc(O)c(O)c(O)c1 [Compound 14],–,–,− (− no activity at 60 μM),72 ± 2,–,–

# From patent publication US10329542B2, “HBV RNAse H purification and enzyme inhibitors” (Saint Louis University, priority 2012, dated 2019)
